# Columns and labels:
# Test in all cases: drug sensitivity score (DSS3, normalised partial AUC of % inhibition dose-response) (DSS (score)); higher = more sensitive (stronger inhibition of viability); extreme values may be limits of the assay
# FMOC06 = patient-derived mucinous ovarian cancer cells; conditions: 72 h; library: FO5A; assay format: 2D, 384-well, CellTiter-Glo
# Method in brief: (§1)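 Patient-derived ovarian cancer cells (early passage, under 10) were dispensed onto 384-well flat clear-bottom plates pre-plated with compounds at five concentrations covering a 10,000-fold range. Plates were incubated 72 h at 37 °C, 5% CO2, and viability was read with CellTiter-Glo. Data were processed in Breeze. The drug sensitivity score (DSS3) is a partial area under the percent-inhibition dose-response curve, divided by the log of the upper asymptote; higher means more sensitive.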
# FMOC14 = patient-derived high-grade serous ovarian cancer cells; conditions: 72 h; library: FO5A; assay format: 2D, 384-well, CellTiter-Glo
# Method in brief: as §1
# FMOC02_3 = patient-derived low-grade serous ovarian cancer cells; conditions: 72 h; library: FO5A; assay format: 2D, 384-well, CellTiter-Glo
# Method in brief: as §1
# FMOC25_2 = patient-derived low-grade serous ovarian cancer cells; conditions: 72 h; library: FO5A; assay format: 2D, 384-well, CellTiter-Glo
# Method in brief: as §1
# FMOC02_2 = patient-derived low-grade serous ovarian cancer cells; conditions: 72 h; library: FO5A; assay format: 2D, 384-well, CellTiter-Glo
# Method in brief: as §1
# FMOC25_1 = patient-derived low-grade serous ovarian cancer cells; conditions: 72 h; library: FO4B; assay format: 2D, 384-well, CellTiter-Glo
# Method in brief: as §1
# FMOC24 = patient-derived high-grade serous ovarian cancer cells; conditions: 72 h; library: FO5A; assay format: 2D, 384-well, CellTiter-Glo
# Method in brief: as §1
# FMOC03 = patient-derived mucinous ovarian cancer cells; conditions: 72 h; library: FO5A; assay format: 2D, 384-well, CellTiter-Glo
# Method in brief: as §1
# FMOC22 = patient-derived mucinous ovarian cancer cells; conditions: 72 h; library: FO5A; assay format: 2D, 384-well, CellTiter-Glo
# Method in brief: as §1
# FMOC09 = patient-derived high-grade serous ovarian cancer cells; conditions: 72 h; library: FO5A; assay format: 2D, 384-well, CellTiter-Glo
# Method in brief: as §1
SMILES,drug sensitivity score (FMOC06),drug sensitivity score (FMOC14),drug sensitivity score (FMOC02_3),drug sensitivity score (FMOC25_2),drug sensitivity score (FMOC02_2),drug sensitivity score (FMOC25_1),drug sensitivity score (FMOC24),drug sensitivity score (FMOC03),drug sensitivity score (FMOC22),drug sensitivity score (FMOC09)
CN(Cc1cnc2nc(N)nc(N)c2n1)c1ccc(C(=O)N[C@@H](CCC(=O)O)C(=O)O)cc1 [Methotrexate],0,0,0,0.2,0,0,0,0,0,0
CO[C@@H]1[C@H](N(C)C(=O)c2ccccc2)C[C@H]2O[C@]1(C)n1c3ccccc3c3c4c(c5c6ccccc6n2c5c31)C(=O)NC4 [Midostaurin],9.1,3,16.9,21.2,21.7,14.5,9.3,5,4.5,10.6
CNC(=O)c1nn(C)c2c1C(C)(C)Cc1cnc(Nc3ccc(N4CCN(C)CC4)cc3)nc1-2 [Milciclib],6.8,6.3,15.1,13.1,12.5,8.5,8.25,8.6,6.2,7.6
O=C1c2c(O)ccc(O)c2C(=O)c2c(NCCNCCO)ccc(NCCNCCO)c21 [Mitoxantrone],1.9,3.2,5.9,7,4,0.3,3.45,2.7,6,8.8
Nc1ccccc1NC(=O)c1ccc(CNc2nccc(-c3cccnc3)n2)cc1 [Mocetinostat],10.9,10.1,11.2,9.2,12.6,9.6,11.4,11.1,8,3.7
N#CCNC(=O)c1ccc(-c2ccnc(Nc3ccc(N4CCOCC4)cc3)n2)cc1 [Momelotinib],2.7,1.7,9.9,9.3,6,5.4,5.95,2.4,3.2,1.2
Cc1cc(OCc2nnc(SC3CCCC3)n2-c2cccnc2)ccc1-c1ccc(S(C)(=O)=O)cc1 [NMS-873],8,9.2,10,9.6,8.3,8.9,9.15,9,8.8,5.3
COc1ccc(-c2ccc3ncc4c(c3c2)n(-c2ccc(N3CCNCC3)c(C(F)(F)F)c2)c(=O)n4C)cn1 [NVP-BGT226],15.2,14.9,27,26.7,24.7,27.5,10.7,17.4,14.4,11.9
CC1(C)CCC(c2ccc(Cl)cc2)=C(CN2CCN(c3ccc(C(=O)NS(=O)(=O)c4ccc(N[C@H](CCN5CCOCC5)CSc5ccccc5)c(S(=O)(=O)C(F)(F)F)c4)cc3)CC2)C1 [Navitoclax],6.6,7.3,21.9,23.2,21.7,14.7,21.1,6.9,4.8,0
CCOc1cc2ncc(C#N)c(Nc3ccc(OCc4ccccn4)c(Cl)c3)c2cc1NC(=O)/C=C/CN(C)C [Neratinib],2.2,2.5,18.3,16.5,14.1,8.7,1.1,12.3,2.3,9.8
COC(=O)c1ccc2c(c1)NC(=O)/C2=C(\Nc1ccc(N(C)C(=O)CN2CCN(C)CC2)cc1)c1ccccc1 [Nintedanib],4.5,3.3,11.7,2.1,8.3,0,5.85,1.8,0.6,4.6
O=C(c1cc(Cc2n[nH]c(=O)c3ccccc23)ccc1F)N1CCN(C(=O)C2CC2)CC1 [Olaparib],3.6,4.4,5,3.2,1.7,3,4.6,1.4,2.4,3.2
COC(=O)C[C@](O)(CCCC(C)(C)O)C(=O)O[C@@H]1C(OC)=C[C@]23CCCN2CCc2cc4c(cc2[C@H]13)OCO4 [Omacetaxine],19,21.9,23.8,24.6,20.2,23.8,23.6,16.7,15.3,19.1
COc1ncc(-c2ccc3nccc(-c4ccnnc4)c3c2)cc1NS(=O)(=O)c1ccc(F)cc1F [Omipalisib],20.6,15.2,23.9,22.1,24.2,24.2,8.5,18.4,13.9,19.1
CC(C)c1cc(C(=O)N2Cc3ccc(CN4CCN(C)CC4)cc3C2)c(O)cc1O [Onalespib],6,9,14,15.4,12.6,12,5.45,12.2,8.1,9
COC[C@H](NC(=O)c1cnc(C)s1)C(=O)N[C@@H](COC)C(=O)N[C@@H](Cc1ccccc1)C(=O)[C@@]1(C)CO1 [Oprozomib],12.9,19.5,15.1,20.4,13.1,14.6,20.9,17.3,16.6,10.6

# From the supplement of paper PMC9938120
